Experiments:
[1] = In vitro metabolic stability in liver microsomes, human; assay type: in vitro ADME; details: for microsomal CLint at 2 µM: pH 7.3, read-out: CLint (µL/min/mg protein) human
Description: (§1) Example D: In Vitro Metabolic Stability of Human and Rat Liver Microsomes Test Buffer Preparation
(§2) Dissolve 1900 mg of MgCl2 in 400 mL of ultrapure water.
(§3) Dissolve 17.42 g K2HPO4 and 13.65 g KH2PO4 into 1000 mL of ultrapure water, respectively. Mix a certain proportion of K2HPO4 and KH2PO4 to adjust the pH to 7.30 ± 0.10.
(§4) Prepare a solution of 10 ng/mL labetalol and 10 ng/mL glyburide in acetonitrile and store at 4° C.
(§5) Prepare 10 mM verapamil (positive control) and test article stock solutions in DMSO. Then, with MeOH/ACN/H2O solution (1:1:2 by volume), diluted to 50 µM and 200 µM working solutions, respectively.
(§6) experiment procedure: • 1) Add 40 µL MgCl2 and 306 µL PBS to 96 wells (set blank control group, positive control group, test compound sample group, and negative control group at the same time) • 2) Add 4 µL of compound working solution to each well (4 µL of PBS buffer for blank group) (Note: the final concentration of DMSO volume in the system is ≤ 0.5%) • 3) Add 10 µL of liver microsomes (concentration: 20 mg/mL) to each well, mix well, and pre-incubate at 37° C. for 10 minutes. • 4) Add 40 µL of 10 mM NADPH working solution to each well to start the reaction (add equal volume of PBS buffer for blank control group and negative control group respectively), the total reaction volume is 400 µL. • 5) Take out 50 µL samples from the above reaction solution at 0, 5, 15, and 45 minutes, and add 400 µL of reaction stop solution to stop the reaction • 6) Shake the sample after the termination of the reaction on a shaker for 5 minutes. • 7) Centrifuge the sample at 3200 rcf for 10 minutes. After the centrifugation is complete, transfer 50 µL of the supernatant to 200 µL of H2O for dilution for LC-MS/MS analysis.
(§7) Calculations of t½ and CLint are performed using the first-order kinetic equations: […]
(§8) where k represents the elimination constant, calculated from a log-linear plot of percentage remaining versus time. t½ represents half-life. Cprotein is the concentration of liver microsomes.

[2] = In vitro metabolic stability in liver microsomes, mouse; assay type: in vitro ADME; details: for microsomal CLint at 2 µM: pH 7.3, read-out: CLint (µL/min/mg protein) mouse
[3] = In vitro metabolic stability in liver microsomes, rat; assay type: in vitro ADME; details: for microsomal CLint at 2 µM: pH 7.3, read-out: CLint (µL/min/mg protein) rat
Description: as §1, §2, §3, §4, §5, §6, §7, §8

[4] = In vitro metabolic stability in liver microsomes, dog; assay type: in vitro ADME; details: for microsomal CLint at 2 µM: dog, microsomes, pH 7.3
[5] = system: lung cancer cells NCI-H358; experiment: Cell proliferation assay, CELL TITER-GLO (CTG) luminescence, NCI-H358; assay type: cell-based; details: cultured for 96 hrs
Description: (§9) Example B: Cell Proliferation Assay
(§10) The effects of the compounds of the invention on the proliferation of leukemia cells MV-4-11 and lung cancer cells NCI-H358 were evaluated using in vitro cell assays. The detection method used in the experiment is the CELL TITER-GLO (CTG) luminescence method, which can detect the number of viable cells by quantifying ATP. Because ATP participates in a variety of enzymatic reactions in vivo, it is an indicator of the metabolism of living cells, and its content directly reflects the number and state of cells. During the experiment, CellTiter-Glo™ reagent was added to the cell culture medium to measure the luminescence value. The value is proportional to the amount of ATP, and ATP is positively related to the number of living cells, so the cell viability can be examined by detecting the ATP content.
(§11) experiment procedure: • (1) Cell plating: • Take a bottle of MV-4-11 cells in logarithmic growth phase, resuspend the cells by centrifugation and count them. After adjusting the cell density, they were seeded into a 96-well plate (Corning #3917). After culturing in a 5% CO2 incubator for 24 hrs, the compound of the present invention was added for treatment; • Take a bottle of NCI-H358 cells in logarithmic growth phase, digest and resuspend the cells, count them, adjust the cell density, and inoculate them into a 96-well transparent ultra-low adsorption cell culture plate (Corning #3474), inoculate 2000 cells per well. The plate was placed in an incubator at 37° C. and 5% CO2 for 24 hrs, and then the compound of the present invention was added for treatment; • (2) Cell compound treatment: • An appropriate amount of the compound of the present invention was prepared for cell treatment. The final concentration of the compound from high to low was 1000 nM, 333.3 nM, 111.1 nM, 37.04 nM, 12.35 nM, 4.115 nM, 1.372 nM, 0.4572 nM, 0.1524 nM, and 0 nM. The plate was placed in a 37° C., 5% CO2 incubator for 120 hrs. Only adding medium without cell wells was set as the blank group; the group with compound concentration of 0 nM was the zero-adjusting group. • (3) CTG detection: • After NCI-H358 cells were cultured for 96 hrs, 50 µL of CellTiter-Glo® Luminescent Cell Viability Assay solution was added to each well, shaken gently for 2 mins, and incubated at room temperature for 10 mins. The cell reaction system was transferred to a white-bottomed 96-well plate. Read the detection value of each well on a multi-function microplate reader. • After MV-4-11 cells were cultured for 120 hrs, 50 µL of CellTiter-Glo® Luminescent Cell Viability Assay solution was added to each well, gently shaken for 2 mins, and incubated at room temperature for 10 mins. Check the value. • (4) Data analysis: • Calculate the inhibition rate from the luminescence value readings, • [formula]
(§12) The log(inhibitor) vs. response-Variable slope of GraphPad Prism was fitted to dose-response curves and IC50s of compounds that inhibited cell proliferation were calculated.

[6] = In vitro metabolic stability in liver microsomes, monkey; assay type: in vitro ADME; details: for microsomal CLint at 2 µM: pH 7.3, read-out: CLint (µL/min/mg protein) monkey
leukemia cells MV-4-11 = experiment: Cell proliferation assay, CELL TITER-GLO (CTG) luminescence, MV-4-11; assay type: cell-based
Description: as §9, §10, §11, §12

SHP2 = SHP2 (Homo sapiens (Human), UniProt Q06124); experiment: SHP2 allosteric inhibitory enzyme activity assay (DiFMUP fluorescence); assay type: biochemical; details: read-out: SHP2 enzymatic activity IC50
Description: Example A: SHP2 Allosteric Inhibitory Enzyme Activity Assay
SHP2 is allosterically activated by binding of a bis-tyrosyl-phosphorylated peptide to its Src homology 2 (SH2) domain. This later activation step results in the release of the autoinhibitory interface of SHP2, which in turn activates the SHP2 protein tyrosine phosphatase (PTP) and is available for substrate recognition and reaction catalysis. The catalytic activity of SHP2 was monitored using the surrogate DiFMUP in a rapid fluorescence assay format.
experiment procedure: • (1) Compound preparation: • The compounds of the present invention (10 mM stock solution) were diluted to appropriate times with 100% DMSO, and the final test concentrations of the compounds of the present invention were 10 µM, 3.3333 µM, 1.1111 µM, 0.3704 µM, 0.1235 µM, 0.0412 µM, 0.0137 µM, 0.0046 µM, 0.0015 µM, 0.00 µM; • (2) Prepare the enzyme reaction working solution: • Perform SHP2 enzymatic assays in 96-well black polystyrene plates (flat bottom, low flange, non-binding surface) (Perki Elmer, Cat#6005270) at room temperature using a final reaction volume of 50 µL and the following assay buffer conditions: 60 mM HEPES, 75 mM NaCl, 75 mM KCl, 0.05% BRIJ-35, 1 mM EDTA, 5 mM DTT. • (3) Enzyme-catalyzed reaction and data monitoring: • Add the compound of the present invention to the corresponding 96-well plate, and set the blank test well without compound and enzyme only with buffer. Thaw SHP2 Activating Peptide (IRS1_pY1172(dPEG8)pY1222) on ice, add 25 µM to each well, then add 0.2 ng of SHP2 protein sample to the corresponding well plate and incubate at room temperature for 1 hour. The surrogate substrate DiFMUP (Invitrogen, Cat #D6567) was added to the reaction and allowed to react for 1 hour at room temperature. Fluorescence signals were monitored using a microplate reader (Envision, Perki Elmer) using excitation and emission wavelengths of 340 nm and […], respectively. • (4) Data analysis: • Calculation Formula: • [formula]
Among them: Conversion_sample is the conversion rate reading of the sample; Conversion_min is the average value of blank control wells, representing the conversion rate readings of wells without enzymatic activity; Conversion_max is the mean ratio of positive control wells, representing the conversion rate readings of wells without compound inhibition. The log(inhibitor) vs. response-Variable slope of the analysis software GraphPad Prism was used to fit the dose-response curve, and the IC50 value of the compound for the enzymatic activity was calculated.

[7] = Homo sapiens, NCI-H358, ultra-low adsorption plate
[8] = Homo sapiens, MV4-11, cultured for 120 hrs

## N#Cc1ccc(OCC#Cc2cnc(N3CCC4(CC3)Cc3ccccc3[C@H]4N)c(CO)n2)cc1 [Compound A12, (S)-4-((3-(5-(1-amino-1,3-dihydrospiro[indene-2,4′-piperidin]-1′-yl)-6-(hydroxymethyl)pyrazin-2-yl)prop-2-yn-1-yl)oxy)benzonitrile]
[1]
  microsomal CLint at 2 µM: 0.2 µL/min/mg
[2]
  microsomal CLint at 2 µM: 8.3 µL/min/mg
[3]
  microsomal CLint at 2 µM: 5.5 µL/min/mg
[4]
  microsomal CLint at 2 µM: 6.2 µL/min/mg
[5]; [7]
  IC50: 7.4 nM
[6]
  microsomal CLint at 2 µM: 7.3 µL/min/mg
Leukemia cells MV-4-11; [8]
  IC50: 3.8 nM

## N[C@@H]1c2ccccc2CC12CCN(c1ncc(C#CCOc3ccc(C(F)(F)F)cc3)nc1CO)CC2 [Compound A14, (S)-(3-(1-amino-1,3-dihydrospiro[indene-2,4′-piperidin]-1′-yl)-6-(3-(4-(trifluoromethyl)phenoxy)prop-1-yn-1-yl)pyrazin-2-yl)methanol]
[1]
  microsomal CLint at 2 µM: 1.4 µL/min/mg
[2]
  microsomal CLint at 2 µM: 6.4 µL/min/mg
[3]
  microsomal CLint at 2 µM: 1.8 µL/min/mg
[4]
  microsomal CLint at 2 µM: 7.8 µL/min/mg
[6]
  microsomal CLint at 2 µM: 3.1 µL/min/mg

## Nc1ncc(OCC#Cc2cnc(N3CCC4(CC3)Cc3ccccc3[C@H]4N)c(CO)n2)cn1 [Compound A19, (S)-(3-(1-amino-1,3-dihydrospiro[indene-2,4′-piperidin]-1′-yl)-6-(3-( (2-Aminopyrimidine-5-yl)oxy)prop-1-yn-1-yl)pyrazin-2-yl)methanol]
[1]
  microsomal CLint at 2 µM: 8.2 µL/min/mg
[2]
  microsomal CLint at 2 µM: 21.4 µL/min/mg
[3]
  microsomal CLint at 2 µM: 31.6 µL/min/mg
[4]
  microsomal CLint at 2 µM: 18.3 µL/min/mg
[6]
  microsomal CLint at 2 µM: 21.2 µL/min/mg

## N[C@@H]1c2ccccc2CC12CCN(c1ncc(C#CCOc3ccc4ccc(=O)[nH]c4c3)nc1CO)CC2 [Compound A24, (S)-7-((3-(5-(1-amino-1,3-dihydrospiro[indene-2,4′-piperidin]-1′-yl)-6-(hydroxymethyl)pyrazin-2-yl)prop-2-yn-1-yl)oxy)quinolin-2(1H)-one]
[1]
  microsomal CLint at 2 µM: 1.6 µL/min/mg
[2]
  microsomal CLint at 2 µM: 8.3 µL/min/mg
[3]
  microsomal CLint at 2 µM: 11 µL/min/mg
[4]
  microsomal CLint at 2 µM: 8.8 µL/min/mg
[5]; [7]
  IC50: 1.5 nM
[6]
  microsomal CLint at 2 µM: 9.9 µL/min/mg
Leukemia cells MV-4-11; [8]
  IC50: 1.3 nM

## NC(=O)c1cccc(NCC#Cc2cnc(N3CCC4(CC3)Cc3ccccc3[C@H]4N)c(CO)n2)c1 [Compound A81, (S)-3-((3-(5-(1-amino-1,3-dihydrospiro[indene-2,4′-piperidin]-1′-yl)-6-(hydroxymethyl)pyrazin-2-yl)prop-2-yn-1-yl)amino)benzamide]
[1]
  microsomal CLint at 2 µM: 14.2 µL/min/mg
[2]
  microsomal CLint at 2 µM: 11.5 µL/min/mg
[3]
  microsomal CLint at 2 µM: 18.4 µL/min/mg
[4]
  microsomal CLint at 2 µM: 13.5 µL/min/mg
[5]; [7]
  IC50: 6.3 nM
[6]
  microsomal CLint at 2 µM: 4 µL/min/mg
Leukemia cells MV-4-11; [8]
  IC50: 1.8 nM

## (S)-4-((3-(5-(1-amino-1,3-dihydro spiro[indene-2,4′-piperidin]-1′-yl)-6-(hydroxymethyl)pyrazin-2-yl)pr op-2-yn-1-yl)oxy)-N-picoline amide [Compound A40]
[1]
  CLint (µL/min/mg protein) human: 11.0 µL/min/mg protein
[2]
  CLint (µL/min/mg protein) mouse: 11.0 µL/min/mg protein
[3]
  CLint (µL/min/mg protein) rat: 11.7 µL/min/mg protein
[4]; dog liver microsomes
  CLint (µL/min/mg protein) dog: 7.8 µL/min/mg protein
[6]
  CLint (µL/min/mg protein) monkey: 15.5 µL/min/mg protein

## (S)-(3-(1-amino-1,3-dihydrospiro[ indene-2,4′-piperidin]-1′-yl)-6-(3-( 3,4-dimethoxyphenoxy)prop-1-yn-1-y 1)pyrazin-2-yl)methanol [Compound A11]
SHP2
  IC50: 1.5 nM
[5]; ultra-low adsorption plate
  IC50: 6.3 nM
Leukemia cells MV-4-11; cultured for 120 hrs
  IC50: 2.6 nM

## (S)-(3-(1-amino-1,3-dihydrospiro[ indene-2,4′-piperidin]-1′-yl)-6-(3-( 4-morpholinoloxy)prop-1-yn-1-yl )pyrazin-2-yl)methanol [Compound A20]
SHP2
  IC50: 3.8 nM
[5]; ultra-low adsorption plate
  IC50: 14 nM
Leukemia cells MV-4-11; cultured for 120 hrs
  IC50: 12 nM

## (S)-(3-(1-amino-1,3-dihydrospiro[ indene-2,4′-piperidin]-1′-yl)-6-(3-( benzo[d][1,3]dioxyol-5-oxy)prop-1-yn-1-yl)pyrazin-2-yl)methanol [Compound A28]
SHP2
  IC50: 1.5 nM
[5]; ultra-low adsorption plate
  IC50: 7 nM
Leukemia cells MV-4-11; cultured for 120 hrs
  IC50: 6.1 nM
